Experimental data: patent publication US20110237644A1, “UBIQUITIN SPECIFIC PROTEASES RESPONSIBLE FOR MCL-1 STABILITY AND USES THEREOF” (Les Laboratoires Servier, priority 2008, published 2011)

Tests used:
Mcl-1 in HCT116 cells = test: USP siRNA screening on Mcl-1 half-life with cycloheximide, Western blot; format: cell-based, human; settings: confirmation experiment
Description: FIG. 1 (FIGS. 1.1, 1.2, 1.3): Schematic representation of Mcl-1 modulation following USP silencing at t=0, 30 min or 1 h of cycloheximide treatment in HCT116 cells. Mcl-1 increase and decrease are respectively presented in blue and green and siRNA toxicity is presented in grey. Absence of color corresponds to absence of any effect. Selected USP for confirmation experiments are highlighted in green (USP5, USP13, USP19, USP21, USP22, USP26, USP28, USP38, USP42 and USP46). SiRNA designed to target pairs of USP are indicated on the right of the table.
For the screening, the indicated amounts of siRNA (40 pmol, 72 nM final) were complexed with 2 μl of Oligofectamine (Invitrogen) in Opti-MEM (Invitrogen) and added to 24-well plates prior to cell seeding. 150 000 HCT116 cells were next plated. Opti-MEM was replaced with appropriate medium 5 hours after transfection. After 72 h of transfection and before harvesting, cells were treated or not with cycloheximide (30 μg/ml) for 30 min or 1 hour or treated with MG132 (30 μM) for 90 min.
Cells were washed once in chilled PBS and harvested by trypsination. Floating and trypsinized cells were pooled and collected by centrifugation. […] Proteins were quantitated using bicinchoninic acid (Sigma-Aldrich) according to manufacturer's instructions. […] Signal was detected using ECL reagent (Amersham) following manufacturer's instructions. […]

HeLa cells = test: Flow cytometry, subG1-phase cells (apoptosis); format: cell-based, human; settings: ABT-737 (3 μM) in Luc siRNA-treated HeLa cells
Description: FIG. 13: Flow cytometry of HeLa cancer cell transfected with luc, mcl-1, USP46v1, USP46v4 or USP46 pool siRNA. Cell cycle was determined 72 h after siRNA transfection and 18 h after ABT-737 treatment (3 μM).
FIG. 14: ABT-737-induced subG1 transition in HeLa cells determined 72 h after siRNA transfection and 24 h after ABT-737 treatment. The percentage of cells in the subG1 (<2N) are means+/−SD of duplicate values (A). Mcl-1 endogenous level was also determined in the presence of siRNA targeting either luciferase, Mcl-1 or USP46. Anti-Stat3 antibody was used as loading control (B).
All cell lines used were maintained in their respective medium. All culture media were supplemented with 100 units/ml penicillin and 0.1 mg/ml streptomycin, and cell lines were incubated at 37° C. in a humidified atmosphere containing 5% CO2. For siRNA transfection, siRNA (40 pmol, 72 nM final) were complexed with 2 μl of Oligofectamine (Invitrogen) in Opti-MEM (Invitrogen) and added to 24-well plates prior to cell seeding. In all conditions, Opti-MEM was replaced with appropriate medium 5 hours after transfection. […]
To confirm the effect of USP46 siRNA on the sensitization of cells to ABT-737-induced apoptosis in HeLa cells, the number of subG1-phase cells is quantified which reflect mainly apoptosis. […]

Mcl-1 = Mcl-1 (Homo sapiens, UniProt Q07820); settings: cited from earlier work
A1 = biological target: T1, A1 (Homo sapiens, UniProt Q16548); settings: cited from earlier work
T1 sequence (Q16548 1-175): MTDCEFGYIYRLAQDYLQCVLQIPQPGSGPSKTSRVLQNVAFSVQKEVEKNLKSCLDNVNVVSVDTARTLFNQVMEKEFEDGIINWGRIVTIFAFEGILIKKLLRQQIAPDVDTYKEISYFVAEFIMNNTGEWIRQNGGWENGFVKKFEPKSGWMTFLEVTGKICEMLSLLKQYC

Mcl-1, sequence (Q07820 whole entry, species assumed): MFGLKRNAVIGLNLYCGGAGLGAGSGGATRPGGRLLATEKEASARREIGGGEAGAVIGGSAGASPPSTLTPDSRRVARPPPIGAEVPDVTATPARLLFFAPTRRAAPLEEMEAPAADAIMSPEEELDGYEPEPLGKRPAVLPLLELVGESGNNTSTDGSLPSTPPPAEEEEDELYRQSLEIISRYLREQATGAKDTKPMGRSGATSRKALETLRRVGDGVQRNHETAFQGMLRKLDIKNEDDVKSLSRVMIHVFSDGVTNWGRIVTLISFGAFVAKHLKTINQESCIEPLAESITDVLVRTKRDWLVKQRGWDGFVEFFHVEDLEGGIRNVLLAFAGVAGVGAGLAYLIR

Row | SMILES | endogenous Mcl-1 level (Mcl-1 in HCT116 cells) | subG1 cells (HeLa cells) | affinity for Mcl-1 (Mcl-1) | affinity for A1 (A1)
1 | C[C@@H]1C[C@@H]([C@H](O)CC2CC(=O)NC(=O)C2)C(=O)[C@@H](C)C1 [cycloheximide] | significant decrease | – | – | –
2 | CN(C)CC[C@H](CSc1ccccc1)Nc1ccc(S(=O)(=O)NC(=O)c2ccc(N3CCN(Cc4ccccc4-c4ccc(Cl)cc4)CC3)cc2)cc1[N+](=O)[O-] [ABT-737] | – | 35%±6.6% | low affinity | low affinity
